Assay results from patent US20260373248A1, “DEGRADABLE PEPTOIDS” (Medici Therapeutics, Inc., priority 2023, published 2026).
Non-standard residues stand in square brackets, D forms with d. Residues, ends and D or L forms follow the SMILES beside them. *: point of attachment. Gly(N-(3-decanoyloxypropyl)) = CCCCCCCCCC(=O)OCCCNCC(=O)O; N(3-lauroyloxypropyl)Gly = CCCCCCCCCCCC(=O)OCCCNCC(=O)O; Gly(N-(CH2)3O-octanoyl) = CCCCCCCC(=O)OCCCNCC(=O)O; N(3-imidazol-1-ylpropyl)Gly = O=C(O)CNCCCn1ccnc1; Gly(N-3-morpholinopropyl) = O=C(O)CNCCCN1CCOCC1; N(2-ethylhexyl)Gly = CCCCC(CC)CNCC(=O)O; Gly(N-dodecyl) = CCCCCCCCCCCCNCC(=O)O; NDecylGly = CCCCCCCCCCNCC(=O)O; NHexGly = CCCCCCNCC(=O)O; For = O=C*

Tests used:
[1] = Delivery vehicle size and polydispersity by dynamic light scattering; assay type: physicochemical; details: DLS in PBS; peptoid:DSPC:Cholesterol:DMG-PEG2000 weight ratio 20:1.79:7.16:1.84, mRNA
Experimental: Delivery vehicles were formulated by rapid microfluidic mixing using a high throughput microfluidic system. Briefly, ethanol solutions containing peptoid, DSPC, Cholesterol, DMG-PEG2000 at weight ratio of 20:1.79:7.16:1.84, were mixed with 10 mM sodium citrate buffer (pH 5.0) containing synthesized mRNA at a ratio of 1:3 by volume. Peptoid based LNPs were subsequently dialyzed against 1-2 liters of tris-sucrose buffer (TS7, pH 7.4) overnight at 4 °C. Delivery vehicle size and polydispersity (PDI) was measured by dynamic light scattering in PBS.
(§1) Degradable peptoids described herein were formulated as various formulations described in Table 3 according to the procedure described in Example 2. Particle size was characterized as described in Example 2, and […] encapsulation of mRNA was determined as described in Example 3.

[2] = tested on: mRNA; test: mRNA encapsulation (modified Quant-iT RiboGreen assay); assay type: physicochemical; details: RiboGreen, without vs with Triton X-100
Experimental: The mRNA concentration and the percentage of encapsulated mRNA were determined using fluorescent-based Quant-iT RiboGreen RNA Reagent Kit (Life Technologies, Waltham, MA) as described previously. To determine the mRNA concentration, PNPs was incubated with […] for 10 min to release entrapped mRNA, followed by addition of RiboGreen RNA reagent. The fluorescence intensity of mRNA-RiboGreen reagent complex (excitation at 485 nm and emission at 530 nm) was detected using a microplate reader. The ratio of fluorescence without and with Triton X-100 were used to calculate the percentage of encapsulated mRNA.
as §1

[3] = tested on: firefly luciferase; test: In vivo firefly luciferase expression after intravenous injection of fLuc mRNA delivery vehicles (IVIS imaging); set-up: species or system female Balb/c mice; details: mice, 2.5 ug fLuc mRNA intravenously, 6 hours post-injection
Experimental: (§2) All animal studies were conducted under accreditation by the California State Department of Public Health and under supervision of IACUC and Veterinarian Supervision. For imaging studies, female Balb/c mice (6-8 weeks old) were obtained and acclimatized for a minimum of 3 days prior to experiments. The animals were maintained on a 12 hour light cycle in a temperature and humidity controlled room. A daily health check was performed as well as food and water check. For dosing, mice were injected with 2.5 ug fLuc mRNA-containing Nutshells intravenously in 100 μL total injection value. At 6 hours post-injection, mice were anesthetized with isoflurane, injected IP with 30 mg/mL D-luciferin at a dose of 10 μL per gram bodyweight intraperitoneally. Imaging was done 10 minutes post D-luciferin injection using an IVIS Spectrum Imaging System (Caliper Life Sciences). Immediately after in vivo imaging, mice were terminally bled by cardiac puncture and euthanized. The organs of interest were harvested, placed in black 24-well plates, and imaged. Living Image software (Perkin Elmer) was used to quantify the total photon flux in regions of interest.
Luciferase expression in these formulations was also determined as described in Example 4.

[4] = tested on: hEPO; test: Quantification of hEPO in serum after IV injection of mRNA (Human EPO ELISA); assay type: in vivo; details: Balb/c mice, 2.5 μg mRNA IV, serum after 6 hours
Experimental: Balb/c mice were treated with 2.5 μg of mRNA coding for human erythropoiten via IV injection according to a similar method as in Example 4. hEPO protein in the serum was quantified after 6 hours using the Human EPO ELISA Kit from Invitrogen (catalog #BMS2035-2). Wash buffer (PBS with 1% tween 20) and assay buffer (PBS with 1% tween 20, 10% BSA) were prepared from a 20× concentrate with milli-Q water. Serum samples were diluted with PBS according to expected EPO concentration, with a 50× dilution for low expression samples and up to a 30,000× dilution for samples expected to have high expression. Microwell strips were washed in a plate washer with wash buffer and tapped on an absorbent pad to remove excess buffer. 100 μL of sample diluent were added to each well that will be used for the standard curve. 50 μL of sample diluent was added to each sample well.
The standard curve was prepared by reconstituting the human erythropoietin standard by adding the volume of water listed on the vial label. Standard was swirled gently and allowed to reconstitute for 10 minutes prior to use, then 100 μL is added to standard wells and mixed well. 100 μL from standard wells were then transferred to sample wells and mixed well. This was repeated 5 times to produce 2 columns of standard dilutions from 100 to 1.6 mIU/mL. 100 μL was discarded from the last microwells. The final 2 wells contained 100 μL of sample diluent and served as a blank. An external standard was also included to facilitate a mIU/mL conversion to ng/mL. The same serial dilution method was repeated starting with the external standard at 6.25 ng/mL. Once the standards were added, 50 μL of each sample was added in duplicate to the sample wells. Next, the biotin-conjugate was prepared by diluting 1:100 in assay buffer. 50 μL of biotin-conjugate was added to all wells and the plate was covered with a plate seal and shaken at room temperature for 1 hour. During the last few minutes of shaking, streptavidin-HRP was prepared by diluting 1:100 in assay buffer. The plate was washed on a plate washer and tapped on an absorbent pad to remove remaining wash buffer.
100 μL of the diluted streptavidin-HRP was added to each well and the plate was sealed and shaken for 15 minutes at room temperature. After 15 minutes, the plate seal was removed and the plate was washed on a plate washer and remaining wash buffer tapped out on an absorbent pad. 100 μL of TMB substrate was added to all wells and the plate was incubated for 10 minutes at room temperature out of direct light. Color development was checked every few minutes and the assay was stopped when the highest standard was dark blue. The reaction was stopped by pipetting 100 μL of stop solution into each well. Immediately after stop solution was added, the plate was gently tapped to ensure the solution was mixed. Absorbance was then read at 450 nm for each well. A standard curve was plotted for both the kit-provided standards (mIU/mL) and the external standard (ng/mL) and fit using Prism. Sample absorbances that fell within the standard curve were interpolated and adjusted for dilution (including a 2× assay dilution). Samples that were not within the standard curve were repeated at an adjusted dilution.

[5] = tested on: luciferase; test: Luciferase expression after local (intramuscular or subcutaneous) administration of mRNA; assay type: in vivo; details: mRNA 0.01 mpk, 6 hours; for IM Flux: intramuscular; for SC Flux: subcutaneous
Experimental: as §2
Aminolipidated peptoids were also effective for local administration of mRNA through subcutaneous (S.C.) or intramuscular (I.M.) routes of administration. For these examples, mRNA was administered at a dose of 0.1 mpk for intratomoral, or 0.01 mpk for subcutaneous and intramuscular administration, and the resulting bioluminescence quantified after 6 hours according to a similar procedure as described in Example 4.

[6] = Peptoid quantity remaining in liver by HPLC-TOF mass spectrometry; assay type: in vivo; details: liver homogenate
Experimental: Peptoid quantity in liver was determined via high-performance liquid chromatography coupled with time-of-flight mass spectrometer (HPLC-TOF). The entire liver was weighed, and then two sections were isolated using a provided biopsy punch for liver homogenization. Liver homogenate sample was prepared by resuspending 20 mg liver tissue in 400 μL extraction solvent (IPA/MeOH=8/2) containing an internal standard (400 pg/μL) followed by bead homogenization (45 sec per cycle for 3-4 cycles). Homogenized samples were centrifuged at 12,000 rpm for 8 min at 6 °C. The resulting supernatant was collected and stored at −20 °C for further LC analysis. 5 μL of the resulting supernatant sample from solid or liquid tissue was injected into a BEH C8 column on an Agilent 1290 Infinity II liquid chromatograph coupled with an Agilent 6230 LC-TOF system. Concentrations of peptoids were determined by a linear calibration curve (linear range:0.2-50 μg/g for solid tissue). Standard calibration curve solutions were prepared by spiking untreated liver followed by homogenization and centrifugation.

PDI [1] | Particle Size [1] [nm] | mean percent encapsulation of RNA [2] [%] | % of injected dose remaining in liver [6] [%] | SMILES | Total Flux [3] [p/s] | hEPO [4] [ng/mL] | IM Flux [5] [p/s] | SC Flux [5] [p/s]
0.245 | 119.7 | 40.7 |  | CCCCCCCCCCN(C=O)CC(=O)N(CCCOC(=O)CCCCCCC)CC(=O)N(CC(=O)N(CCCn1ccnc1)CC(=O)N(CC(=O)N(CCCOC(=O)CCCCCCC)CC(=O)N(CCCCCCCCCC)CC(N)=O)CC(CC)CCCC)CC(CC)CCCC (centres unmarked) [Compound 114] (For-[NDecylGly][Gly(N-(CH2)3O-octanoyl)][N(2-ethylhexyl)Gly][N(3-imidazol-1-ylpropyl)Gly][N(2-ethylhexyl)Gly][Gly(N-(CH2)3O-octanoyl)][NDecylGly]-NH2) | 2.06E+08 | 23.7 | 9.30E+07 | 1.03E+08
0.156 | 78.4 | 49.8 |  | CCCCCCCCCCN(C=O)CC(=O)N(CCCOC(=O)CCCCCCCCC)CC(=O)N(CC(=O)N(CCCN1CCOCC1)CC(=O)N(CC(=O)N(CCCOC(=O)CCCCCCCCC)CC(=O)N(CCCCCCCCCC)CC(N)=O)CC(CC)CCCC)CC(CC)CCCC (centres unmarked) [Compound 117] (For-[NDecylGly][Gly(N-(3-decanoyloxypropyl))][N(2-ethylhexyl)Gly][Gly(N-3-morpholinopropyl)][N(2-ethylhexyl)Gly][Gly(N-(3-decanoyloxypropyl))][NDecylGly]-NH2) | 5.14E+09 | 685 | 2.10E+08 | 6.43E+08
0.111 | 86.2 | 82.1 |  | CCCCCCCC(=O)OCCCN(C=O)CC(=O)N(CCCOC(=O)CCCCCCC)CC(=O)N(CCc1ccccc1)CC(=O)N(CC(=O)N(CCCN1CCOCC1)CC(=O)N(CCCOC(=O)CCCCCCC)CC(=O)N(CCc1ccccc1)CC(=O)N(CCCOC(=O)CCCCCCC)CC(=O)N(CC(N)=O)CC(CC)CCCC)CC(CC)CCCC (centres unmarked) [Compound 125] | 2.12E+09 | 13.4 | 9.45E+07 | 8.55E+07

Continued, compound first:

SMILES | PDI [1] | Particle Size [1] [nm] | mean percent encapsulation of RNA [2] [%] | % of injected dose remaining in liver [6] [%] | Total Flux [3] [p/s] | hEPO [4] [ng/mL] | IM Flux [5] [p/s] | SC Flux [5] [p/s]
CCCCCCCCCCCC(=O)OCCCN(CC(=O)N(CCCOC(=O)CCCCCCCCCCC)CC(=O)N(CCCCCC)CC(=O)N(CCCOC(=O)CCCCCCCCCCC)CC(=O)N(CCCOC(=O)CCCCCCCCCCC)CC(=O)N(CCCCCC)CC(N)=O)C(=O)CN(C=O)CCCN1CCOCC1 [Compound 71] (For-[Gly(N-3-morpholinopropyl)][N(3-lauroyloxypropyl)Gly][N(3-lauroyloxypropyl)Gly][NHexGly][N(3-lauroyloxypropyl)Gly][N(3-lauroyloxypropyl)Gly][NHexGly]-NH2) | 0.238 | 86.9 | 13.1 |  | 4.43E+08 | 38.1 | 3.61E+08 | 9.18E+07
CCCCCCCCCCCC(=O)OCCCN(CC(=O)N(CCCOC(=O)CCCCCCCCCCC)CC(=O)N(CCCCCC)CC(=O)N(CCCOC(=O)CCCCCCCCCCC)CC(=O)N(CCCOC(=O)CCCCCCCCCCC)CC(=O)N(CCCCCC)CC(N)=O)C(=O)CNCCCn1ccnc1 [Compound 73] (H-[N(3-imidazol-1-ylpropyl)Gly][N(3-lauroyloxypropyl)Gly][N(3-lauroyloxypropyl)Gly][NHexGly][N(3-lauroyloxypropyl)Gly][N(3-lauroyloxypropyl)Gly][NHexGly]-NH2) | 0.289 | 111.2 | 66.2 | 10.58 |  | 27.8 | 5.36E+07 | 6.38E+07
CCCCCCCCCCCC(=O)OCCCN(C=O)CC(=O)N(CCCOC(=O)CCCCCCCCCCC)CC(=O)N(CC(=O)N(CCCN1CCOCC1)CC(=O)N(CCCOC(=O)CCCCCCCCCCC)CC(=O)N(CCCOC(=O)CCCCCCCCCCC)CC(=O)N(CC(N)=O)CC(CC)CCCC)CC(CC)CCCC (centres unmarked) [Compound 81] (For-[N(3-lauroyloxypropyl)Gly][N(3-lauroyloxypropyl)Gly][N(2-ethylhexyl)Gly][Gly(N-3-morpholinopropyl)][N(3-lauroyloxypropyl)Gly][N(3-lauroyloxypropyl)Gly][N(2-ethylhexyl)Gly]-NH2) |  |  |  | 6.17 | 1.89E+08 | 52 | 2.11E+08 | 6.97E+07
CCCCCCCCCCCCN(C=O)CC(=O)N(CCCOC(=O)CCCCCCCCCCC)CC(=O)N(CC(=O)N(CCCn1ccnc1)CC(=O)N(CC(=O)N(CCCOC(=O)CCCCCCCCCCC)CC(=O)N(CCCCCCCCCCCC)CC(N)=O)CC(CC)CCCC)CC(CC)CCCC (centres unmarked) [Compound 85] (For-[Gly(N-dodecyl)][N(3-lauroyloxypropyl)Gly][N(2-ethylhexyl)Gly][N(3-imidazol-1-ylpropyl)Gly][N(2-ethylhexyl)Gly][N(3-lauroyloxypropyl)Gly][Gly(N-dodecyl)]-NH2) | 0.102 | 81.1 | 0.0 | 40.01 |  | 26.3 | 5.99E+07 | 4.21E+07
